Experimental data published in ChEMBL document CHEMBL5331061, “Design, synthesis, and biological evaluation of Wee1 kinase degraders” (Eur J Med Chem, 2022).
Active and inactive are the calls of the source. No cut-off for these calls is given here.

What was measured:
[1] = target: Cyclin-dependent kinase 1 (Homo sapiens) (UniProt P06493); experiment: Inhibition of CDK1 phosphorylation in human MV4-11 cells by measuring residual activity at 25 nM measured after 24 hrs by Western blot assay; format: cell-based
Chain of Cyclin-dependent kinase 1 (Homo sapiens) (P06493 whole entry, looked up): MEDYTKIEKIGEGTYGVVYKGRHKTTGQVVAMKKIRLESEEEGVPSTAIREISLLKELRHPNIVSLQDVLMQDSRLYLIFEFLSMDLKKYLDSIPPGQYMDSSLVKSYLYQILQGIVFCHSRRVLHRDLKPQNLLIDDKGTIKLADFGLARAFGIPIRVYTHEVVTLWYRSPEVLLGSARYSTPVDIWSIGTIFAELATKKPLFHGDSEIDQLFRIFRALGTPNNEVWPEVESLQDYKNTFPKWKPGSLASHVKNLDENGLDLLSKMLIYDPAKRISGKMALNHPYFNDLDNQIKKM

[2] = target: Cyclin-dependent kinase 1 (Homo sapiens) (UniProt P06493); experiment: (§1) Inhibition of CDK1 phosphorylation in human MV4-11 cells assessed as reduction in phosphorylated CDK1 level by measuring residual activity at 50 uM pretreated for 2 hrs with proteasome inhibitor carfilzomib followed by incubation with compound for 3 hrs by Western blot analysis (reference value: 29%); format: cell-based
MV4-11 [3] = experiment: Effect on PKMYT1 mRNA expression in human MV4-11 cells at 50 nM measured upto 72 hrs by qRT-PCR assay; format: functional, cell-based
[4] = Downregulation of PLK1 in human MV4-11 cells assessed as 2 log fold change at 50 nM measured after 2 hrs by proteomic analysis; format: functional
[5] = target: Cyclin-dependent kinase 1 (Homo sapiens) (UniProt P06493); experiment: Inhibition of CDK1 phosphorylation in human MV4-11 cells by measuring residual activity at 200 nM measured after 24 hrs by Western blot assay; format: cell-based
MV4-11 [6] = experiment: Effect on PLK1 expression in human MV4-11 cells at IC50 measured after 6 hrs by Western blot analysis; format: functional, cell-based
MV4-11 [7] = experiment: Induction of apoptosis in human […] -/- MV4-11 cells at 50 to 400 nM measured after 48 hrs by AnnexinV/PI staining based flow cytometry analysis; format: functional, cell-based; details: dose 50-400 nM
[8] = Observed AUCinfinity ICR mouse at 10 mg/kg, iv measured upto 360 mins; format: ADME, organism-based; design: dose 10 mg/kg, time < 360 min, route iv; details: in vivo
MV4-11 [9] = experiment: Induction of […] in human MV4-11 cells assessed as change in gammaH2AX level at 12.5 to 200 nM measured after 24 hrs by Western blot analysis; format: functional, cell-based; details: dose 12.5-200 nM
[10] = Reduction in PKMYT1 level in human MV4-11 cells by measuring residual activity at 100 nM measured after 24 hrs by Western blot assay (reference value: 100%); format: functional
[11] = Observed MRTinfinity ICR mouse at 10 mg/kg, iv measured upto 360 mins; format: ADME, organism-based; details: in vivo
[12] = target: T1, Membrane-associated tyrosine- and threonine-specific cdc2-inhibitory kinase (Homo sapiens) (UniProt Q99640); experiment: Induction of PKMYT1 degradation in human MV4-11 cells at 50 nM measured after 3 hrs by Western blot assay; format: cell-based
T1 sequence (whole entry): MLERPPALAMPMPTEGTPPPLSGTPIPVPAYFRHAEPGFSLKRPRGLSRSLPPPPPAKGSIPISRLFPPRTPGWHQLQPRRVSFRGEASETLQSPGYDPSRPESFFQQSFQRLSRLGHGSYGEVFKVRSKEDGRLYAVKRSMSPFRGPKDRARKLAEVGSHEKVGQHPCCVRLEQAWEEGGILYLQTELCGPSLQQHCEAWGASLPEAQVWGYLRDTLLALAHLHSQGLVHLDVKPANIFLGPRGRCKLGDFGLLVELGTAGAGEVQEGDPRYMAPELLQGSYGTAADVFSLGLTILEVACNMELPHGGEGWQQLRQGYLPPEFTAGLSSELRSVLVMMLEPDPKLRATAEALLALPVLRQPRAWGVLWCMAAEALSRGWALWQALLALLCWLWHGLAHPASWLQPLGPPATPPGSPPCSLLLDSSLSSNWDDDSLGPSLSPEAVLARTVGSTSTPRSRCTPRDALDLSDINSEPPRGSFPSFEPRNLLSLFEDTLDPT

[13] = Reduction in PKMYT1 level in human MV4-11 cells by measuring residual activity at 12.5 nM measured after 24 hrs by Western blot assay (reference value: 100%); format: functional
MV4-11 [14] = experiment: Effect on Wee1 mRNA expression in human MV4-11 cells at 50 nM measured upto 72 hrs by qRT-PCR assay; format: functional, cell-based
[15] = Reduction in PKMYT1 level in human MV4-11 cells by measuring residual activity at 25 nM measured after 24 hrs by Western blot assay (reference value: 100%); format: functional
[16] = target: Cyclin-dependent kinase 1 (Homo sapiens) (UniProt P06493); experiment: Inhibition of CDK1 phosphorylation in human MV4-11 cells by measuring residual activity at 100 nM measured after 24 hrs by Western blot assay; format: cell-based
[17] = target: Serine/threonine-protein kinase PLK1 (Homo sapiens, UniProt P53350); experiment: Inhibition of PLK1 (unknown origin)
Chain of Serine/threonine-protein kinase PLK1 (P53350 whole entry): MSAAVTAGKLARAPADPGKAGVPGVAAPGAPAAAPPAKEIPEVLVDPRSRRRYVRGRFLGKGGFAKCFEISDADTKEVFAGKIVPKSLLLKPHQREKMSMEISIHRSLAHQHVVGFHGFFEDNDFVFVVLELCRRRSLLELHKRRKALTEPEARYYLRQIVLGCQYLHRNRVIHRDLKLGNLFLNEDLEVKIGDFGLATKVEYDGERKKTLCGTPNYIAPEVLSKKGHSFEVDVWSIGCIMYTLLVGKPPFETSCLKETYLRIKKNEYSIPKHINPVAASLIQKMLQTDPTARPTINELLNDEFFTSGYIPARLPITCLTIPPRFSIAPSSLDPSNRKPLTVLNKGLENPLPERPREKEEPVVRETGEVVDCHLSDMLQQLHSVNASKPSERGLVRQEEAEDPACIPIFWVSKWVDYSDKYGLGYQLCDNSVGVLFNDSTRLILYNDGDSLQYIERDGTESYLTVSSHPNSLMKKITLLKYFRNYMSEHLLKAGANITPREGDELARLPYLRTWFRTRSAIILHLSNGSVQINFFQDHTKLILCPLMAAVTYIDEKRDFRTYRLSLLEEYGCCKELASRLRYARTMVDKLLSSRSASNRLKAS

[18] = target: Cyclin-dependent kinase 1 (Homo sapiens) (UniProt P06493); experiment: Inhibition of CDK1 phosphorylation in human MV4-11 cells by measuring residual activity at 50 nM measured after 24 hrs by Western blot assay; format: cell-based
[19] = Reduction in PKMYT1 level in human MV4-11 cells by measuring residual activity at 50 nM measured after 24 hrs by Western blot assay (reference value: 100%); format: functional
[20] = Half life in ICR mouse at 10 mg/kg, iv measured upto 360 mins; format: ADME, organism-based; details: in vivo
[21] = Downregulation of JAK2 in human MV4-11 cells assessed as 2 log fold change at 50 nM measured after 2 hrs by proteomic analysis; format: functional
MV4-11 [22] = experiment: Induction of apoptosis in human MV4-11 cells assessed as increase in late apoptotic cells incubated for 48 hrs by annexin V and PI staining based flow cytometry analysis; format: functional, cell-based; details: dose 12.5-200 nM
MV4-11 [23] = experiment: Induction of apoptosis in human MV4-11 cells assessed as increase in early apoptotic cells incubated for 48 hrs by annexin V and PI staining based flow cytometry analysis; format: functional, cell-based; details: dose 12.5-200 nM
[24] = Reduction in PKMYT1 level in human MV4-11 cells by measuring residual activity at 200 nM measured after 24 hrs by Western blot assay (reference value: 100%); format: functional
[25] = target: Cyclin-dependent kinase 1 (Homo sapiens) (UniProt P06493); experiment: Inhibition of CDK1 phosphorylation in human MV4-11 cells by measuring residual activity at 12.5 nM measured after 24 hrs by Western blot assay; format: cell-based
MV4-11 [26] = experiment: Induction of apoptosis in human MV4-11 cells assessed as cleaved PARP expression at 100 nM incubated for 24 hrs by Western blot analysis; format: functional, cell-based
[27] = target: Cyclin-dependent kinase 1 (Homo sapiens) (UniProt P06493); experiment: Inhibition of CDK1 in human MV4-11 cells assessed as dephosphorylation at 50 nM pretreated for 2 hrs followed by replacement with fresh medium and measured after 24 hrs by Western blot method; format: cell-based; details: time 26.0 hrs
MV4-11 [28] = experiment: Effect on PLK1 mRNA expression in human MV4-11 cells at 50 nM measured upto 72 hrs by qRT-PCR assay; format: functional, cell-based
MV4-11 [29] = experiment: Induction of cell cycle arrest in human MV4-11 cells assessed as accumulation of cells at G0/G1 phase incubated for 24 hrs by […] PI staining based flow cytometry analysis; format: functional; details: dose 12.5-200 nM
[30] = target: Cyclin-dependent kinase 1 (Homo sapiens) (UniProt P06493); experiment: Inhibition of CDK1 phosphorylation in human MV4-11 cells assessed as reduction in phosphorylated CDK1 level by measuring residual activity at 50 uM pretreated for 2 hrs with proteasome inhibitor Bortezomib followed by incubation with compound for 3 hrs by Western blot analysis (reference value: 29%); format: cell-based
[31] = Downregulation of MAP3K4 in human MV4-11 cells assessed as 2 log fold change at 50 nM measured after 2 hrs by proteomic analysis; format: functional
[32] = AUClast in ICR mouse at 10 mg/kg, iv measured upto 360 mins; format: ADME, organism-based; design: dose 10 mg/kg, time < 360 min, route iv; details: in vivo
[33] = target: Cyclin-dependent kinase 1 (Homo sapiens) (UniProt P06493); experiment: Inhibition of CDK1 phosphorylation in human MV4-11 cells assessed as reduction in phosphorylated CDK1 level by measuring residual activity at 50 uM pretreated for 2 hrs with proteasome inhibitor Iberdomide followed by incubation with compound for 3 hrs by Western blot analysis (reference value: 29%); format: cell-based
MV4-11 [34] = experiment: Induction of apoptosis in human MV4-11 cells assessed as cleaved caspase-3 expression at 100 nM incubated for 24 hrs by Western blot analysis; format: functional, cell-based
[35] = target: Cyclin-dependent kinase 1 (Homo sapiens) (UniProt P06493); experiment: as §1, with “lenalidomide” for “carfilzomib”; format: cell-based

## C=CCn1c(=O)c2cnc(Nc3ccc(N4CCN(CCCCNc5cccc6c5C(=O)N(C5CCC(=O)NC5=O)C6=O)CC4)cc3)nc2n1-c1cccc(C(C)(C)O)n1 (stereo not given)
[1]
  Activity: 80%
[2]
  Activity: 96%
MV4-11 [3]
  Activity: inactive
[4]
  FC: 0.38
[5]
  Activity: 20%
MV4-11 [6]
  Activity: inactive
MV4-11 [7]
  Activity: inactive
[8]
  AUC(0-inf): 4660 ng·h/mL
MV4-11 [9]
  Activity: inactive
[10]
  Activity: 37%
[11]
  MRT inf: 0.943 h
[12]
  Activity: Active
[13]
  Activity: 113%
MV4-11 [14]
  Activity: inactive
[15]
  Activity: 99%
[16]
  Activity: 22%
[17]
  IC50: 2.97 µM
[18]
  Activity: 50%
[19]
  Activity: 38%
[20]
  half-life: 1.31 h
[21]
  FC: -0.1
MV4-11 [22]
  Activity: Dose-Dependent Effect
MV4-11 [23]
  Activity: Dose-Dependent Effect
[24]
  Activity: 25%
[25]
  Activity: 88%
MV4-11 [26]
  Activity: Active
[27]
  inhibition: Active
MV4-11 [28]
  Activity: inactive
MV4-11 [29]
  Activity: Dose-Dependent Effect
[30]
  Activity: 120%
[31]
  FC: -0.06
[32]
  AUC(0-t) at 6 h: 4580 ng·h/mL
[33]
  Activity: 75%
MV4-11 [34]
  Activity: Active
[35]
  Activity: 102%
